How the values were obtained:
Mu-type opioid receptor [1] = target: T1, Mu-type opioid receptor (Homo sapiens, UniProt P35372); assay: Agonist activity at human MOR expressed in CHOK1 cells assessed as inhibition of forskolin-stimulated cAMP accumulation incubated for 30 mins by luminescence assay; type: functional, cell-based, CHO-K1
[2] = target: Kappa-type opioid receptor (Homo sapiens, UniProt P41145); assay: Agonist activity at human KOR expressed in CHOK1 cells assessed as inhibition of forskolin-stimulated cAMP accumulation incubated for 30 mins by luminescence assay; type: functional, cell-based, CHO-K1
[3] = target: Delta-type opioid receptor (Homo sapiens, UniProt P41143); assay: Agonist activity at human DOR expressed in CHOK1 cells assessed as inhibition of forskolin-stimulated cAMP accumulation incubated for 30 mins by luminescence assay; type: functional, cell-based, CHO-K1
Mu-type opioid receptor [4] = target: T1, Mu-type opioid receptor; assay: Activity at human MOR expressed in CHOK1 cells co-expressing beta-arrestin2 EFC assessed as beta-arrestin2 EFC recruitment measured after 90 mins by PathHunter assay; type: ADME, cell-based, CHO-K1
Mu-type opioid receptor [5] = target: T1, Mu-type opioid receptor; assay: Activity at human MOR expressed in U2OS cells co-expressing beta-arrestin2 EFC assessed as beta-arrestin2 EFC recruitment by Tango assay; type: ADME, cell-based
Mu-type opioid receptor [6] = target: T1, Mu-type opioid receptor; assay: Agonist activity at human MOR expressed in CHOK1 cells assessed as induction of beta-arrestin recruitment measured after 90 mins by PathHunter assay relative to control; type: cell-based; conditions: CHO-K1

Sequence of Kappa-type opioid receptor (P41145 whole entry): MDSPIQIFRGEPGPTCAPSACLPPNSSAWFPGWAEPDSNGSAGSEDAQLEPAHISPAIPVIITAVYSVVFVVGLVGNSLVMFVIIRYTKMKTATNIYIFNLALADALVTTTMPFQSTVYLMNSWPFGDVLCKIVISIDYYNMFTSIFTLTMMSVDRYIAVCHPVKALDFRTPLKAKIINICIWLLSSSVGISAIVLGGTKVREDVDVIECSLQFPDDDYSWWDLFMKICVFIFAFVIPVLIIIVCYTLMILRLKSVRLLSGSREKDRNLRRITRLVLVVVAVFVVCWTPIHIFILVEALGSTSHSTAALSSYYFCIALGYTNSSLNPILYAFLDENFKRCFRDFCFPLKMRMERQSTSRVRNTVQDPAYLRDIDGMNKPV
T1 sequence (P35372 whole entry): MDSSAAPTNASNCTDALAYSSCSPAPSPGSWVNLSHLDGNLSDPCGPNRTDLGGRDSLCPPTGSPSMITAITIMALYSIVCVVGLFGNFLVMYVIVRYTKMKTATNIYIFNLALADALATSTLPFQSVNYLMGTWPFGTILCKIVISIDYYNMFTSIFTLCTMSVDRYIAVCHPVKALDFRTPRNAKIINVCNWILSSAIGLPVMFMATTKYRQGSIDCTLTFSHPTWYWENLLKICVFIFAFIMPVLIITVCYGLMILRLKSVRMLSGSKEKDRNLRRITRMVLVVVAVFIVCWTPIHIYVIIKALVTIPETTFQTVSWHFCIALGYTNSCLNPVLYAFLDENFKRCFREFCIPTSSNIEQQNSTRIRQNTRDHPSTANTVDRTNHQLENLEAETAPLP
Sequence of Delta-type opioid receptor (P41143 whole entry): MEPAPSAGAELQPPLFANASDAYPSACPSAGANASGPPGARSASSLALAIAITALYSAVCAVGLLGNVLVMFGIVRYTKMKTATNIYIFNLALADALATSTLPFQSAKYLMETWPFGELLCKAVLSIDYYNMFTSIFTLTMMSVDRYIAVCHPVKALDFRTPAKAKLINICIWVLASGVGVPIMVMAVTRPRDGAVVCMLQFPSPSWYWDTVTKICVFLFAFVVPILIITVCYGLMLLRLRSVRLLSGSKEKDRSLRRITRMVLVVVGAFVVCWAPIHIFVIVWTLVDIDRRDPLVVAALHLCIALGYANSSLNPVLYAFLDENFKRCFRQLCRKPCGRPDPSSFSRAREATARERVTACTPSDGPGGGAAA

Compound | EC50 (Mu-type opioid receptor [1]) | EC50 [2] | EC50 [3] | EC50 (Mu-type opioid receptor [4]) | EC50 (Mu-type opioid receptor [5]) | Emax (Mu-type opioid receptor [6])
COC(=O)CC[C@@H]1[C@@H]2CCC[C@@]1(c1cccc(O)c1)CCN2CCc1ccccc1 | 854 nM | 323 nM | > 10000 nM | > 25000 nM | – | –
OC/C=C/[C@H]1[C@@H]2CCC[C@@]1(c1cccc(O)c1)CCN2CCc1ccccc1 | – | > 10000 nM | > 10000 nM | > 25000 nM | > 25000 nM | –
COC(=O)/C=C/[C@H]1[C@@H]2CCC[C@@]1(c1cccc(O)c1)CCN2CCc1ccccc1 | 132 nM | > 10000 nM | 143 nM | > 25000 nM | – | –
CCOC(=O)CC[C@H]1[C@@H]2CCC[C@@]1(c1cccc(O)c1)CCN2CCc1ccccc1 | 0.24 nM | 35.3 nM | 49.1 nM | 11.6 nM | > 25000 nM | –
COC(=O)CC[C@H]1[C@@H]2CCC[C@@]1(c1cccc(O)c1)CCN2CCc1ccccc1 | 0.46 nM | – | > 10000 nM | 1.72 nM | 12.5 nM | –
C[C@@H](Cc1ccsc1)NC(=O)NC[C@H](Cc1ccc(O)cc1)N(C)C | – | – | – | – | – | 4.3%
O=C(O)CC[C@H]1[C@@H]2CCC[C@@]1(c1cccc(O)c1)CCN2CCc1ccccc1 | 31.7 nM | > 10000 nM | > 10000 nM | > 25000 nM | > 25000 nM | –
COC(=O)CC[C@@H]1[C@H]2CCC[C@]1(c1cccc(O)c1)CCN2CCc1ccccc1 | 31.3 nM | > 10000 nM | > 10000 nM | > 25000 nM | > 25000 nM | –
CCC[C@H]1[C@@H]2CCC[C@@]1(c1cccc(O)c1)CCN2CCc1ccccc1 | – | > 10000 nM | > 10000 nM | > 25000 nM | > 25000 nM | –
Oc1cccc([C@@]23CCC[C@H]([C@H]2O)N(CCc2ccccc2)CC3)c1 | 0.017 nM | 323 nM | 2.6 nM | 6.08 nM | – | –
OCCC[C@H]1[C@@H]2CCC[C@@]1(c1cccc(O)c1)CCN2CCc1ccccc1 | – | > 10000 nM | 80.9 nM | > 25000 nM | > 25000 nM | –
OCCC[C@@H]1[C@H]2CCC[C@]1(c1cccc(O)c1)CCN2CCc1ccccc1 | – | > 10000 nM | > 10000 nM | > 25000 nM | > 25000 nM | –
